One assay addresses FXa (Homo sapiens, UniProt P00742). The assay can be described thus: Protease/carboxypeptidase panel: FXa. The class given is biochemical. The text has this:
Supplement srep32958-s1.docx, table 1: Table S1: Activities of Anabaenopeptins against a panel of proteases/carboxypeptidases. | column: FXa

Another assay deals with T1, CPN (Homo sapiens, UniProt P15169).
T1 sequence (P15169 21-458): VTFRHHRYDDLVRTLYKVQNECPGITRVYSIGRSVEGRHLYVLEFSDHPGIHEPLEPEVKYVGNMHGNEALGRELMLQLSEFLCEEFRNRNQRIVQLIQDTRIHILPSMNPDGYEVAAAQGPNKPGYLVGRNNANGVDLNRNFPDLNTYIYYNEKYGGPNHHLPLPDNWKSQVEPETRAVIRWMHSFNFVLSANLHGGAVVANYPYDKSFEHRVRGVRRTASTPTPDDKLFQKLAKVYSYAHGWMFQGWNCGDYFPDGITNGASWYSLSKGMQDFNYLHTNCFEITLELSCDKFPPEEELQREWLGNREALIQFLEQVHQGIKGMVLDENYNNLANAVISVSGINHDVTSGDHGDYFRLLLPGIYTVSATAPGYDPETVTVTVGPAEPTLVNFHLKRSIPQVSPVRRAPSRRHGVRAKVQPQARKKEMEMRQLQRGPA
T1 sequence (P22792 22-545 partner): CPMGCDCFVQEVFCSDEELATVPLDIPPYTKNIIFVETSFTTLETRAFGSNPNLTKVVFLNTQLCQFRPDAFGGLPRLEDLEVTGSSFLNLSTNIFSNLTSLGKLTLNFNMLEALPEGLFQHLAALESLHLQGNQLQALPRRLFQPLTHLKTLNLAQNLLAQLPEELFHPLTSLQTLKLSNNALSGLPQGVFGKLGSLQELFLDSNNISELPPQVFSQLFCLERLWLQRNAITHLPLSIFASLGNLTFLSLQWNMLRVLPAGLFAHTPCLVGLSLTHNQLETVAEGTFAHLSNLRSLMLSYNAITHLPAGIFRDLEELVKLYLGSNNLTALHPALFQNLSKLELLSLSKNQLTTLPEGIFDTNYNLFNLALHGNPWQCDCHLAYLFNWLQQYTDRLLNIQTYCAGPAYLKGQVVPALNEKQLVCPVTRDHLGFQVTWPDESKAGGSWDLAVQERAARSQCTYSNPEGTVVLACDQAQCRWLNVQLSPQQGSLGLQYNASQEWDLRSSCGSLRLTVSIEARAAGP
Briefly: Protease/carboxypeptidase panel: CPN. Format: biochemical. The conditions noted are these: read-out: IC50 CPN. The text has this:
Supplement srep32958-s1.docx, table 1: Table S1: Activities of Anabaenopeptins against a panel of proteases/carboxypeptidases. | column: CPN

The next assay addresses T2, CPA (Homo sapiens, UniProt P15085).
T2 sequence (P15085 111-419): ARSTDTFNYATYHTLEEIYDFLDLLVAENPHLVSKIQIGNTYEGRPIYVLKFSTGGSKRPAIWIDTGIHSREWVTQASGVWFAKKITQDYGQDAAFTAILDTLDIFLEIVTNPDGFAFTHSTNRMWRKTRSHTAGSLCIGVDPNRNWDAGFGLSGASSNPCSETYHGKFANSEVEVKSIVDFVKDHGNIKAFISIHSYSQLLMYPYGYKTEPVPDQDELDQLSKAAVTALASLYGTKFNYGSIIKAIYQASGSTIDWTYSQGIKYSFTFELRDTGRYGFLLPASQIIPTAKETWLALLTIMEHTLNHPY
The assay can be described thus: Protease/carboxypeptidase panel: CPA. The class given is biochemical. From the text:
Supplement srep32958-s1.docx, table 1: Table S1: Activities of Anabaenopeptins against a panel of proteases/carboxypeptidases. | column: CPA

Another assay addresses FIIa (Homo sapiens, UniProt P00734). The assay can be described thus: Protease/carboxypeptidase panel: FIIa. Format: biochemical. The conditions noted are these: read-out: Ki FIIa. The text has this:
Supplement srep32958-s1.docx, table 1: Table S1: Activities of Anabaenopeptins against a panel of proteases/carboxypeptidases. | column: FIIa

The next assay has as its target T3, TAFIa (Homo sapiens, UniProt Q96IY4).
T3 construct: purchased American Diagnostica Pr; No. 874
T3 sequence (Q96IY4 115-423): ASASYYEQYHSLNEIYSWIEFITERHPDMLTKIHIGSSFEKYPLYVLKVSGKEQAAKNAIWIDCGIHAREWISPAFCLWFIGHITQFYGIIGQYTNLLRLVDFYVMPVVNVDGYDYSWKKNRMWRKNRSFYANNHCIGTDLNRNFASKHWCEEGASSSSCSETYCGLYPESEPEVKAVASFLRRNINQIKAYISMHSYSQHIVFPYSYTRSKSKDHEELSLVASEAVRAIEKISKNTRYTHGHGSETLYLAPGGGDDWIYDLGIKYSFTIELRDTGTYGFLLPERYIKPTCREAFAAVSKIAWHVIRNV
Briefly: biochemical.

For a further assay, the target named is carboxypeptidase A. The conditions noted are these: cited from earlier work; for inhibitory concentrations carboxypeptidase A: in words.
Where [1] appears, read: enzymatic inhibition assay, duplicate determination, read-out: IC50 in nM against TAFIa.

≈ marks a conversion by molar mass, not a printed value. Like-named read-outs stand apart in the source and are kept apart here. Numbered stars: 1 amine (or outer) side, 2 acyl side, 3 side chain; on linkers, the order of the positions; unused ones are H or OH. Bridge positions count the residues as written; N and C are the ends. Square brackets hold non-standard residues; d marks the D form. Peptide text beside a SMILES is read from it. ξ: configuration not given here. X1 = O=C([C@H](CCc1ccc(O)c(Cl)c1)N[*:1])[*:2]; NMehTyr = CN[C@@H](CCc1ccc(O)cc1)C(=O)O; Nle(6-Ph) = N[C@@H](CCCCc1ccccc1)C(=O)O; d(aIle) = CC[C@H](C)[C@@H](N)C(=O)O; hTyr = N[C@@H](CCc1ccc(O)cc1)C(=O)O; hhPhe = N[C@@H](CCCc1ccccc1)C(=O)O; aIle = CC[C@@H](C)[C@H](N)C(=O)O; hPhe = N[C@@H](CCc1ccccc1)C(=O)O; Ile(3ξ) = CCC(C)[C@H](N)C(=O)O; NMeN = CN[C@@H](CC(N)=O)C(=O)O; NMeS = CN[C@@H](CO)C(=O)O; NMeA = CN[C@@H](C)C(=O)O; CO = O=C([*:1])[*:2]; Sar = CNCC(=O)O

In general, Ki refers to the equilibrium dissociation constant of an inhibitor or competing ligand from its target. As a reminder, the IC50 is the concentration that inhibits the measured activity by half.

Chain of FXa (P00742 235-488 limits assumed): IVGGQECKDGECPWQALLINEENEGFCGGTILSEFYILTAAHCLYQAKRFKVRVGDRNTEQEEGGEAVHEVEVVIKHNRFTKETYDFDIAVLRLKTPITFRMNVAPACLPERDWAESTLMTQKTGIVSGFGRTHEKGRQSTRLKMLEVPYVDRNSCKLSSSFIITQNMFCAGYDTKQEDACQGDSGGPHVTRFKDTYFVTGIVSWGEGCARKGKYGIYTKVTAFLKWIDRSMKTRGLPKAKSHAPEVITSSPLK
Chain of FXa (P00742 41-179 partner limits assumed): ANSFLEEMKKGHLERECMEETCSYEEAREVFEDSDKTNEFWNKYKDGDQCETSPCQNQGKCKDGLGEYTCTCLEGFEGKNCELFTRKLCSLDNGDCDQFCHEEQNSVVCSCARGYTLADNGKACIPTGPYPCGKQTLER

Take `CC[C@H](C)[C@@H]1NC(=O)[C@H](NC(=O)N[C@@H](CCCNC(=N)N)C(=O)O)CCCCNC(=O)[C@H](Cc2ccccc2)NC(=O)[C@H](C)N(C)C(=O)[C@H](CCc2ccc(O)cc2)NC1=O` [Compound 3, Anabaenopeptin F] ({Arg-CO}-[dK]I[hTyr][NMeA]F; lactam 1-C): the values for the Ki at FXa and on FIIa were 38 µM and 350 nM, respectively. Further, the values for the IC50 at CPN and on CPA were 2700 nM and 1100 nM, respectively.

Molecule `CCC(C)[C@@H]1NC(=O)[C@H](NC(=O)N[C@@H](CCCCN)C(=O)O)CCCCNC(=O)[C@H](Cc2ccccc2)NC(=O)[C@H](CC(N)=O)N(C)C(=O)[C@H](CCCc2ccccc2)NC1=O` (stereo partly drawn) [Compound 4, Anabaenopeptin SA4] ({Lys-CO}-[dK][Ile(3ξ)][hhPhe][NMeN]F; lactam 1-C) had an IC50 against TAFIa of 3.4 nM.

`CC[C@@H](C)[C@H](NC(=O)N[C@@H]1CCCCNC(=O)[C@H](Cc2ccccc2)NC(=O)[C@H](CC(N)=O)N(C)C(=O)[C@H](CCCCc2ccccc2)NC(=O)[C@@H]([C@@H](C)CC)NC1=O)C(=O)O` [Compound 8, Anabaenopeptin SA8] ({aIle-CO}-[dK][d(aIle)][Nle(6-Ph)][NMeN]F; lactam 1-C): the IC50 on TAFIa (setting [1]) was 4800 nM.

Take `CC[C@@H](C)C1NC(=O)[C@H](NC(=O)N[C@@H](Cc2ccccc2)C(=O)O)CCCCNC(=O)[C@H](CCc2ccccc2)NC(=O)CN(C)C(=O)[C@H](CCc2ccc(O)c(Cl)c2)NC1=O` (stereo partly drawn) [Compound 9, Anabaenopeptin SA9]: the IC50 on TAFIa (setting [1]) worked out at 31000 nM.

In the case of `CC(C)[C@H]1NC(=O)[C@H](NC(=O)N[C@@H](Cc2ccccc2)C(=O)O)CCCCNC(=O)[C@H](CCc2ccc(O)c(Cl)c2)NC(=O)CN(C)C(=O)[C@H](CCc2ccc(O)cc2)NC1=O` [Compound 10, Anabaenopeptin SA10] ({Phe-CO}-[dK][dV][hTyr][Sar][X1]; lactam 1-C), the IC50 on TAFIa (setting [1]) was determined as 7000 nM.

`CC[C@@H](C)C1NC(=O)[C@H](NC(=O)N[C@@H](Cc2ccccc2)C(=O)O)CCCCNC(=O)[C@H](CCc2ccc(O)c(Cl)c2)NC(=O)CN(C)C(=O)[C@H](CCc2ccc(O)cc2)NC1=O` (stereo partly drawn) [Compound 11, Anabaenopeptin SA11]: the IC50 at TAFIa (setting [1]) amounted to 15000 nM.

Turning to `CC(C)[C@@H]1NC(=O)[C@H](NC(=O)N[C@@H](Cc2ccc(O)cc2)C(=O)O)CCCCNC(=O)[C@H](Cc2ccccc2)NC(=O)[C@H](C)N(C)C(=O)[C@H](CCc2ccc(O)cc2)NC1=O` [Compound 13, Anabaenopeptin A] ({Tyr-CO}-[dK]V[hTyr][NMeA]F; lactam 1-C), the IC50 at TAFIa (setting [1]) was determined as 440 nM.

In the case of `CC[C@H](C)[C@@H]1NC(=O)[C@H](CCc2ccc(O)cc2)N(C)C(=O)[C@H](CCc2ccc(O)cc2)NC(=O)[C@H](C(C)C)NC(=O)[C@H](NC(=O)N[C@@H](Cc2ccc(O)cc2)C(=O)O)CCCCNC1=O` [Compound 15, Anabaenopeptine 915] ({Tyr-CO}-[dK]V[hTyr][NMehTyr]I; lactam 1-C), on TAFIa, inhibition was half-maximal at 530 nM (IC50).

For `CC[C@H](C)[C@@H]1NC(=O)[C@H](CCc2ccc(O)cc2)N(C)C(=O)[C@H](CCc2ccc(O)cc2)NC(=O)[C@H](C(C)C)NC(=O)[C@H](NC(=O)N[C@@H](CCCNC(=N)N)C(=O)O)CCCCNC1=O` [Compound 16, Anabaenopeptin 908] ({Arg-CO}-[dK]V[hTyr][NMehTyr]I; lactam 1-C), on TAFIa, the IC50 came out at 1.8 nM.

As to `CC[C@H](C)[C@H]1NC(=O)[C@H](NC(=O)N[C@@H](CCCCN)C(=O)O)CCCCNC(=O)[C@H](Cc2ccccc2)NC(=O)[C@H](C)N(C)C(=O)[C@H](CCc2ccc(O)cc2)NC1=O` [Compound 17, Anabaenopeptin SA3] ({Lys-CO}-[dK][d(aIle)][hTyr][NMeA]F; lactam 1-C), the 50% inhibitory concentration (IC50) at TAFIa (setting [1]) was 2.1 nM.

Consider `CC[C@@H](C)[C@H](NC(=O)N[C@@H]1CCCCNC(=O)[C@H](Cc2ccccc2)NC(=O)[C@H](CC(N)=O)N(C)C(=O)[C@H](CCc2ccccc2)NC(=O)[C@H]([C@H](C)CC)NC1=O)C(=O)O` [Compound 18, Anabaenopeptin SA6] ({aIle-CO}-[dK][aIle][hPhe][NMeN]F; lactam 1-C), for which the IC50 at TAFIa (setting [1]) was 51000 nM.

`CC(C)[C@H]1NC(=O)[C@H](NC(=O)N[C@@H](CCCN=C(N)N)C(=O)O)CCCCNC(=O)[C@H](Cc2ccccc2)NC(=O)[C@H](CO)N(C)C(=O)[C@H](CCc2ccc(O)cc2)NC1=O` [Compound 19, Anabaenopeptin SA2] ({Arg-CO}-[dK][dV][hTyr][NMeS]F; lactam 1-C): the IC50 at TAFIa (setting [1]) is 16 nM.

Regarding `CC(C)[C@H]1NC(=O)[C@H](NC(=O)N[C@@H](Cc2ccc(O)cc2)C(=O)O)CCCCNC(=O)[C@H](Cc2ccccc2)NC(=O)[C@H](CO)N(C)C(=O)[C@H](CCc2ccc(O)cc2)NC1=O` [Compound 20, Anabaenopeptin SA13] ({Tyr-CO}-[dK][dV][hTyr][NMeS]F; lactam 1-C), the concentration for half-maximal inhibition (IC50) at TAFIa (setting [1]) amounted to 2500 nM.

On to `CC[C@H](C)[C@@H]1NC(=O)[C@H](NC(=O)N[C@@H](Cc2ccc(O)cc2)C(=O)O)CCCCNC(=O)[C@H]([C@@H](C)CC)NC(=O)[C@H](CCc2ccc(O)cc2)N(C)C(=O)[C@H](CCc2ccc(O)cc2)NC1=O` [anabaenopeptin G] ({Tyr-CO}-[dK]I[hTyr][NMehTyr]I; lactam 1-C), for which, on carboxypeptidase A, the “inhibitory concentrations carboxypeptidase A” value is on record as “nanomolar”.

On to `CC[C@H](C)[C@@H]1NC(=O)[C@H](NC(=O)N[C@@H](CCCNC(=N)N)C(=O)O)CCCCNC(=O)[C@H]([C@@H](C)CC)NC(=O)[C@H](CCc2ccc(O)cc2)N(C)C(=O)[C@H](CCc2ccc(O)cc2)NC1=O` [anabaenopeptin H] ({Arg-CO}-[dK]I[hTyr][NMehTyr]I; lactam 1-C), for which the “IC50 carboxypeptidase A” value on carboxypeptidase A is 3.4 µg/mL (≈ 3.68 µM).

As to `CC[C@H](C)[C@H](NC(=O)N[C@@H]1CCCCNC(=O)[C@H](CC(C)C)NC(=O)[C@H](C)N(C)C(=O)[C@H](CCc2ccc(O)cc2)NC(=O)[C@H](C(C)C)NC1=O)C(=O)O` [anabaenopeptin I] ({Ile-CO}-[dK]V[hTyr][NMeA]L; lactam 1-C), on carboxypeptidase A, the “inhibitory concentrations carboxypeptidase A” value is “nanomolar”.

As for `CC[C@H](C)[C@H](NC(=O)N[C@@H]1CCCCNC(=O)[C@H](Cc2ccccc2)NC(=O)[C@H](C)N(C)C(=O)[C@H](CCc2ccc(O)cc2)NC(=O)[C@H](C(C)C)NC1=O)C(=O)O` [anabaenopeptin J] ({Ile-CO}-[dK]V[hTyr][NMeA]F; lactam 1-C), the “inhibitory concentrations carboxypeptidase A” value at carboxypeptidase A is “nanomolar”.

Regarding Anabaenopeptin SA1 [Compound 5], on TAFIa (setting [1]), the IC50 was 2.2 nM.

Regarding Anabaenopeptin SA5 [Compound 6], the IC50 on TAFIa (setting [1]) is 790 nM.

As for Anabaenopeptin SA7 [Compound 7], the IC50 at TAFIa (setting [1]) was found to be 13000 nM.

As for Anabaenopeptin SA12 [Compound 12], the IC50 at TAFIa (setting [1]) is 4300 nM.
